Series [1] concerns the target rHSP90. The experiment in a line: HSP90 binding assay (BIACORE SPR; inhibition of binding between rHSP90 and fixed herbimycin A). Particulars: concentration inhibiting binding between rHSP90 (50 μg/mL) and fixed herbimycin A by 50%, BIACORE-X SPR; read-out: HSP90 inhibitory activity IC50.
Series [2] deals with Human breast cancer cells (MCF7). The experiment in a line: Antiproliferative activity on MCF7 cells (methylene blue method). It is filed as cell-based. Particulars: Homo sapiens, MCF7, 72 h, MCF7 cells, 72 hours treatment, 660 nm absorbance after methylene blue staining; read-out: Antiproliferative activity IC50.
Series [3] relates to HSP90 client protein Her2 in MCF7 cells. In words: Measurement test for amount of HSP90 client protein Her2 (Western blotting). It is filed as cell-based. Particulars: MCF7 cells treated 16 hours at 3-5 concentrations. The method, then:
(§1) MCF7 cells (American Type Culture Collection, Rockville, Md.) were treated with the compounds of the present invention at various concentrations for 16 hours to confirm that the HSP90 inhibitors of the present invention induce a depression of intracellular concentration of the client protein or target polypeptide that bind to HSP90. The amount of the HSP90 client protein Her2 and ERα was evaluated by the Western blotting method.
(§2) One million cells were seeded in a 6 cm dish, and 24 hours later the compounds of the present invention (Example 1-2, Example 2-1, Example 2-13, Example 2-2, Example 3-4, Example 2-5, Example 3-16, Example 3-6, Example 2-7, Example 3-27, Example 2-10 and Example 3-18) were added. Cells treated with the compounds were washed, mixed with 150 μl of lysis buffer (RIPA, 150 mM NaCl, 1% NP40, 0.1% deoxycholate (sodium salt), 0.1% SDS, 1 mM EDTA, 10 mM Tris-HCl (pH 8.0)) and incubated at 4° C. for 30 minutes. The cell lysates were centrifuged (15,000 rpm, 20 minutes) and protein (20 μg) of the supernatant was subjected to SDS polyacrylamide gel electrophoresis (SDS-PAGE). After finishing the electrophoresis, proteins in the gel were transferred to a PVDF membrane. The membrane after the transfer was treated with a primary antibody against the HSP90 client protein (anti Her2 or anti ERa antibody, both from Santa Cruz Biotechnology, Santa Cruz, Calif.), then treated with secondary antibodies (anti-rabbit Ig, horse radish peroxidase conjugated F(ab′)2 fragment (derived from donkey): Amersham Biosciences, UK Limited, Buckinghamhshire, UK.) and then the amount of the client protein was detected as the intensity of chemiluminescence signal with a chemiluminescence reagent (ECL: Amersham Biosciences UK Limited, Buckinghamshire, UK).

For series [4], the system named is HSP90 client protein ERα in MCF7 cells. The experiment in a line: Measurement test for amount of HSP90 client protein ERα (Western blotting). Particulars: MCF7 cells treated 16 hours at 3-5 concentrations. It is filed as cell-based. As for the experimental part: as §1, §2
The subject of series [5] is Human lung cancer H460. In words: Antitumor effect on nude mice transplanted with human lung cancer H460. The following applies: tail vein, starting day = 1.0. It is filed as in vivo. The method, then:
Antitumor Effect on Nude Mice Transplanted with Human Lung Cancer
Human lung cancer H460 tumor fragment, which had been passaged subcutaneously in nude mice, was made into about 3 mm fragment and transplanted subcutaneously to the back of nude mice using a trocar. When the tumor volume grew to about 50 mm^3 or above, the compound of the present invention was administered to the tail vein once a day for 5 or 7 days every day. The compound of the present invention was dissolved in DMSO, mixed with TWEEN 80, and then diluted with a 5% glucose injection solution and used. The vehicle of the compound was administered to the control group of OH-a01. The control groups in other experiments were not treated. The tumor volume was measured on the first administration day and on the evaluation day (7 or 8 days after the start of the administration), and the relative tumor volume of the evaluation day was obtained from the tumor volume on the first administration day. Further, the tumor volume was calculated by measuring the major axis (Lmm) and minor axis (Wmm) of the tumor and by the formula (L×W^2)/2.
Relative tumor volume represents the average relative tumor volume on day 7 after the start of the administration, assuming the tumor volume of the starting day is 1.0.
Relative tumor volume represents the average relative tumor volume on day 8 after the start of the administration, assuming the tumor volume of the starting day is 1.0.

SMILES strings stand for the structures. Structures can show the parent of a compound that is named as a salt.

Consider 6 compounds from patent US20130116251A1, “Novel HSP90 Inhibitor” (Nippon Kayaku Kabushiki Kaisha, priority 2005, published 2013).

Regarding `COc1ccc(-n2c(-c3cc(C(C)C)c(O)cc3O)n[nH]c2=O)cc1` [OH-a08, 5-(2,4-dihydroxy-5-isopropyl-phenyl)-4-(4-methoxy-phenyl)-2,4-dihydro-[1,2,4]triazol-3-one], the melting point is 272 °C (dec.). For the same compound, the IC50 in series [1] came to 120 nM. In addition, the IC50 in series [2] came out at 11 nM. For the same compound, in series [3], the “amount of HSP90 client protein Her2” value is reported as “depression”. Moreover, in series [4], the “amount of HSP90 client protein ERα” value is “depression”. Moreover, in series [5] (Table 9, 100 mg/kg/day, 5 days continuous, day 8, control group 4.6 ± 3.1), the “Relative tumor volume (Average ± SD)” value was 1.9 ± 1.0. Besides, the “Relative tumor volume (Average ± SD)” value in series [5] (Table 9, 200 mg/kg/day, 5 days continuous, day 8, control group 4.6 ± 3.1) was 1.1 ± 0.3.
With `COc1ccc(-n2c(-c3cc(C(C)C)c(O)cc3O)nnc2S(=O)(=O)CCCN2CCCCC2)cc1` [SFN3-a08, 4-isopropyl-6-[4-(4-methoxy-phenyl)-5-(3-piperidin-1-yl-propane-1-sulfonyl)-4H-[1,2,4]triazol-3-yl]-benzene-1,3-diol], the IC50 is 590 nM in series [1] and 44 nM in series [2]. For the same compound, in series [3], the “amount of HSP90 client protein Her2” value was “depression”. For the same compound, the “amount of HSP90 client protein ERα” value in series [4] is recorded as “depression”. The “Relative tumor volume (Average ± SD)” value in series [5] (Table 10, 100 mg/kg/day, 5 days continuous, day 8, control group 6.5 ± 2.0) worked out at 5.4 ± 1.3; in series [5] (Table 10, 150 mg/kg/day, 5 days continuous, day 8, control group 6.5 ± 2.0), 2.9 ± 0.6.
With `COc1ccc(-n2c(-c3cc(C(C)C)c(O)cc3O)nnc2S(=O)(=O)CCCN(C)C)cc1` (as salt: hydrochloride) [SFN2-a08, 4-[5-(3-dimethylamino-propane-1-sulfonyl)-4-(4-methoxy-phenyl)-4H-[1,2,4]triazol-3-yl]-6-isopropyl-benzene-1,3-diol], the melting point is 233 °C (dec.).
Take `CC(C)c1cc(-c2n[nH]c(=O)n2-c2ccc(CN3CCOCC3)cc2)c(O)cc1O` [OH-a02, 4-{5-hydroxy-4-[4-(morpholin-4-ylmethyl)-phenyl]-4H-[1,2,4]triazol-3-yl}-6-isopropyl-benzene-1,3-diol]: the figures for the IC50 in series [1] and in series [2] were 180 nM and 16 nM, respectively. Also, the “amount of HSP90 client protein Her2” value in series [3] was “depression”. Besides, in series [4], the “amount of HSP90 client protein ERα” value is “depression”. In addition, the “Relative tumor volume (Average ± SD)” value was 3.5 ± 2.3 in series [5] (Table 9, 75 mg/kg/day, 5 days continuous, day 8, control group 4.6 ± 3.1) and 2.1 ± 0.1 in series [5] (Table 9, 150 mg/kg/day, 5 days continuous, day 8, control group 4.6 ± 3.1).
Consider `CC(C)c1cc(-c2n[nH]c(=O)n2C(C)C)c(O)cc1O` [OH-a21, 5-(2,4-dihydroxy-5-isopropyl-phenyl)-4-isopropyl-2,4-dihydro-[1,2,4]triazol-3-one], for which the melting point is 261 to 262 °C (dec.). For the same compound, the IC50 in series [1] turned out to be 130 nM. The IC50 in series [2] is 38 nM. For the same compound, the “amount of HSP90 client protein Her2” value in series [3] is “depression”. Also, the “amount of HSP90 client protein ERα” value in series [4] is on record as “depression”.
In the case of `CC(C)c1cc(-c2n[nH]c(=O)n2-c2ccc(N3CCOCC3)cc2)c(O)cc1O` [OH-a01, 4-{5-hydroxy-4-[4-(morpholin-4-yl)-phenyl]-4H-[1,2,4]triazol-3-yl}-6-isopropyl-benzene-1,3-diol], the figures for the IC50 in series [1] and in series [2] were 140 nM and 4.9 nM, respectively. In series [3], the “amount of HSP90 client protein Her2” value was “depression”. The “amount of HSP90 client protein ERα” value in series [4] was “depression”. Also, the “Relative tumor volume (Average ± SD)” value came out at 3.3 ± 0.7 in series [5] (Table 8, 3.8 mg/kg/day, 7 days continuous, day 7, control group 7.3 ± 1.7) and 1.7 ± 0.5 in series [5] (Table 8, 7.5 mg/kg/day, 7 days continuous, day 7, control group 7.3 ± 1.7).
